Measured values from patent publication US6979664B1, “Composition for accelerating seed germination and plant growth” (Bios Agriculture Inc., priority 1998, dated 2005).

Test system: Zea mays
Assay: early growth (after seedling emergence) of Zea mays
Type: in vivo
Conditions: for Leaf area / No. of roots / Root dry wt./plant / Root length / Shoot dry wt./plant / Spent seed dry wt.: 15 DAS
Text: Plastic pots (7.5 cm dia) were filled with 15 g of autoclaved vermiculite. Seeds of corn (Zea mays—Poaceae), bean (Phaseolus vulgaris—Fabaceae), canola (Brassica napus—Brassicaceae), cucumber (Cucumis sativus—Cucurbitaceae), cantaloupe (Cucumis melo—Cucurbitaceae), cotton (Gossypium sp.—Malvaceae), lettuce (Lactuca sativa—Asteraceae), beet (Beta vulgaris—Chenopodiaceae), and soybean (Glycine max—Fabaceae), were placed at 2.5 cm deep at the rate of 5 or 10 seeds per pot. […] Acetonitrile was included as one of the controls since LCO was purified in this solvent (see Example 3), after 4 days the pots were irrigated with 10 mL of water once every two days. Each treatment had 4 replications in a randomized block design. Pots were placed on a green house bench maintained at 25±2° C. with a day/night cycle 16/8 h and relative humidity of 70%, or in a growth chamber set at 15° C. with a 16:8 day/night cycle. The percent seedling emergence was recorded at 4 days after sowing (DAS). Plant height was recorded from 4 DAS to 15 DAS. Plants were harvested at 15 DAS and leaf area, root length and the number of roots per plant were recorded. The plants were then dissected and placed in paper covers and dried at 90° C. for 24 h and the dry weights of roots, shoots and the spent seeds recorded. The data were analyzed with the Statistical Analysis System version 6.12 (SAS institute Inc. Cary, N.C., USA).

For `CCCCCCC=CCCCCCCCCCC(=O)NC1C(OC2C(CO)OC(OC3C(CO)OC(OC4C(CO)OC(OC5C(COC6OC(C)C(O)C(O)C6OC)OC(O)C(NC(C)=O)C5O)C(NC(C)=O)C4O)C(NC(C)=O)C3O)C(NC(C)=O)C2O)OC(CO)C(O)C1O` (stereo not shown) [LCO, NodBj-V(C18:1Δ11)], the “Plant height at 15 DAS” value (LCO 10−^5) was 102.9 c mm, the Leaf area (LCO 10−^5) was 11.7 cd cm^2 and the No. of roots (LCO 10−^5) was 6.8 cd. The Root dry wt./plant (LCO 10−^5) was 75.7 cd mg, the Root length (LCO 10−^5) was 137.0 cd mm and the Shoot dry wt./plant (LCO 10−^5) was 41.6 bcd mg. For the same compound, the “Spent seed dry wt.” value (LCO 10−^5) was 123.5 bc mg, the “Plant height at 15 DAS” value (LCO 10−^6) was 130.4 ab mm and the Leaf area (LCO 10−^6) was 18.2 a cm^2. For the same compound, the No. of roots (LCO 10−^6) was 7.66 abc, the Root dry wt./plant (LCO 10−^6) was 85.1 bc mg and the Root length (LCO 10−^6) was 150.8 bc mm. For the same compound, the Shoot dry wt./plant (LCO 10−^6) was 51.4 b mg, the “Spent seed dry wt.” value (LCO 10−^6) was 90.7 cd mg and the “Plant height at 15 DAS” value (LCO 10−^7) was 130.1 ab mm. For the same compound, the Leaf area (LCO 10−^7) was 15.7 ab cm^2, the No. of roots (LCO 10−^7) was 8.0 ab and the Root dry wt./plant (LCO 10−^7) was 96.5 ab mg. For the same compound, the Root length (LCO 10−^7) was 153.9 b mm, the Shoot dry wt./plant (LCO 10−^7) was 51.6 b mg and the “Spent seed dry wt.” value (LCO 10−^7) was 99.5 cd mg. The “Plant height at 15 DAS” value (LCO 10−^8) was 142.6 a mm, the Leaf area (LCO 10−^8) was 19.3 a cm^2 and the No. of roots (LCO 10−^8) was 8.4 a. The Root dry wt./plant (LCO 10−^8) was 103.4 a mg, the Root length (LCO 10−^8) was 187.0 a mm and the Shoot dry wt./plant (LCO 10−^8) was 66.2 a mg. The “Spent seed dry wt.” value (LCO 10−^8) was 76.3 mg·days, the “Plant height at 15 DAS” value (LCO 10−^9) was 134.7 ab mm and the Leaf area (LCO 10−^9) was 17.0 ab cm^2. For the same compound, the No. of roots (LCO 10−^9) was 7.75 abc, the Root dry wt./plant (LCO 10−^9) was 83.3 bc mg and the Root length (LCO 10−^9) was 144.4 cbd mm. The Shoot dry wt./plant (LCO 10−^9) was 46.8 bc mg, the “Spent seed dry wt.” value (LCO 10−^9) was 93.7 cd mg and the “Plant height at 15 DAS” value (LCO 10−^10) was 127.1 b mm. For the same compound, the Leaf area (LCO 10−^10) was 13.9 bc cm^2, the No. of roots (LCO 10−^10) was 7.95 ab and the Root dry wt./plant (LCO 10−^10) was 89.5 abc mg. The Root length (LCO 10−^10) was 149.1 bc mm, the Shoot dry wt./plant (LCO 10−^10) was 51.4 b mg and the “Spent seed dry wt.” value (LCO 10−^10) was 89.8 cd mg. The “Plant height at 15 DAS” value (LCO 10−^11) was 103.3 mm, the Leaf area (LCO 10−^11) was 8.51 def cm^2 and the No. of roots (LCO 10−^11) was 6.69 cd. For the same compound, the Root dry wt./plant (LCO 10−^11) was 74.6 cd mg, the Root length (LCO 10−^11) was 132.1 d mm and the Shoot dry wt./plant (LCO 10−^11) was 38.0 cde mg. The “Spent seed dry wt.” value (LCO 10−^11) was 115.9 bc mg, the “Plant height at 15 DAS” value (LCO 10−^12) was 98.3 c mm and the Leaf area (LCO 10−^12) was 8.0 def cm^2. For the same compound, the No. of roots (LCO 10−^12) was 7.25, the Root dry wt./plant (LCO 10−^12) was 84.6 bc mg and the Root length (LCO 10−^12) was 137.9 cd mm. For the same compound, the Shoot dry wt./plant (LCO 10−^12) was 40.6 bcde mg, the “Spent seed dry wt.” value (LCO 10−^12) was 105.4 od mg and the “Plant height at 15 DAS” value (LCO 10−^13) was 91.8 cd mm. For the same compound, the Leaf area (LCO 10−^13) was 10.4 cde cm^2, the No. of roots (LCO 10−^13) was 6.7 cd and the Root dry wt./plant (LCO 10−^13) was 85.4 bc mg. For the same compound, the Root length (LCO 10−^13) was 130.9 d mm, the Shoot dry wt./plant (LCO 10−^13) was 43.6 bc mg and the “Spent seed dry wt.” value (LCO 10−^13) was 109.6 cd mg. The “Plant height at 15 DAS” value (LCO 10−^14) was 99.9 c mm, the Leaf area (LCO 10−^14) was 11.2 cde cm^2 and the No. of roots (LCO 10−^14) was 7.36 abc. The Root dry wt./plant (LCO 10−^14) was 90.2 abc mg, the Root length (LCO 10−^14) was 136.8 cd mm and the Shoot dry wt./plant (LCO 10−^14) was 46.6 bc mg. For the same compound, the “Spent seed dry wt.” value (LCO 10−^14) was 102.9 cd mg, the “α-amylase activity in the treated seeds” value (corn seeds) was “dramatic increase” and the “start of seedling emergence after seeding” value (corn, control 3–4 days) was 2 to 3 days. The “LCO concentration of optimum effect” value (early growth of corn (Table 3)) was 10^−8 M.
